The structures appear in SMILES notation.

Sequence of CXCR3 (A0A2K5UV19 entry or part of it): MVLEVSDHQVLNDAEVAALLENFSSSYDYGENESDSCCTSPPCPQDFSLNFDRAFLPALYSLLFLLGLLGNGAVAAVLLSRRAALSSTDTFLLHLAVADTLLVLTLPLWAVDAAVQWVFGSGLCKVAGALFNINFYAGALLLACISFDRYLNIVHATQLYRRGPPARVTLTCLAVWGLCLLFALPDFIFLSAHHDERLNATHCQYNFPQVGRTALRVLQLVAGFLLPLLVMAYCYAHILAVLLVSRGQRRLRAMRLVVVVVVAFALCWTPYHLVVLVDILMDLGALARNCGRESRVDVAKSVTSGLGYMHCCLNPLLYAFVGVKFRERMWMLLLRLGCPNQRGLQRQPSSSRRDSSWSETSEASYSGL

This experiment concerns the target CXCR3 (Macaca fascicularis, UniProt A0A2K5UV19). Description: functional cellular assay measuring calcium flux in CXCR3 transfected cells (block of CXCR3/IP-10 interaction). Type of experiment: cell-based, Cyno. The conditions noted are these: IP-10 induced intracellular calcium flux; Cyno-CHO cells stably expressing recombinant CXCR3 and G-alpha-16; IP-10 at EC80; read-out: IC50. An outline of the steps:
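Cyno-CHO cells stably expressing CXCR3 and G-alpha-16, loaded with Ca-4 dye in HBSS/10 mM HEPES pH 7.4 with 2 mM probenecid for 1 h at 37° C. Compound (final 10 microM) preincubated 15 min at room temperature, then IP-10 at EC80 added; calcium flux read at 480/540 nm.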
Turning to `CC1CN(c2ccc(C(F)(F)F)cc2-c2cnc(N3CCC(O)CC3)nc2)CCN1C(=O)CN1CCCCC1=O` (centres unmarked) [1-[2-(4-{2-[2-(4-hydroxypiperidin-1-yl)pyrimidin-5-yl]-4-(trifluoromethyl)phenyl}-2-methylpiperazin-1-yl)-2-oxoethyl]piperidin-2-one], the IC50 – broadly, the point on the concentration scale where inhibition reaches its midpoint – amounted to 11 nM. In the case of `COc1ncc(-c2cc(F)ccc2N2CCN(C(=O)CN3CCCCC3=O)CC2)cn1` [1-(2-{4-[4-fluoro-2-(2-methoxypyrimidin-5-yl)phenyl]piperazin-1-yl}-2-oxoethyl)piperidin-2-one] it was 174 nM; in that of `COc1ncc(-c2ccccc2N2CCN(C(=O)CN3Cc4ccccc4C3=O)CC2)cn1` [2-(2-{4-[2-(2-Methoxy-pyrimidin-5-yl)-phenyl]-piperazin-1-yl}-2-oxo-ethyl)-2,3-dihydro-isoindol-1-one], 17 nM; in that of `O=C(Cn1ccc2cccnc21)N1CCN(c2ccc(F)cc2-c2cnc(N3CCC(O)CC3)nc2)CC1` [1-(4-{4-fluoro-2-[2-(4-hydroxypiperidin-1-yl)pyrimidin-5-yl]phenyl}piperazin-1-yl)-2-(1H-pyrrolo[2,3-b]pyridin-1-yl)ethanone], 8 nM.

In the case of `CC1CN(c2ccc(F)cc2-c2cnc(N3CCC(S(C)(=O)=O)CC3)nc2)CCN1C(=O)Cn1ccc2ccncc21` (centres unmarked) [1-[4-(4-fluoro-2-{2-[4-(methylsulfonyl)piperidin-1-yl]pyrimidin-5-yl}phenyl)-2-methylpiperazin-1-yl]-2-(1H-pyrrolo[2,3-c]pyridin-1-yl)ethanone], the IC50 amounted to 8 nM. As for `COc1ncc(-c2ccccc2N2CCN(C(=O)Cn3ccc4ccnc(Cl)c43)CC2)cn1` [2-(7-Chloro-pyrrolo[2,3-c]pyridin-1-yl)-1-{4-[2-(2-methoxy-pyrimidin-5-yl)-phenyl]-piperazin-1-yl}-ethanone], the IC50 is 16 nM. For `O=C(Cn1c(=O)[nH]c2ccccc21)N1CCN(c2ccc(F)cc2-c2cnc(N3CCC(O)CC3)nc2)CC1` [1-[2-(4-{4-fluoro-2-[2-(4-hydroxypiperidin-1-yl)pyrimidin-5-yl]phenyl}piperazin-1-yl)-2-oxoethyl]-1,3-dihydro-2H-benzimidazol-2-one] the value was 8 nM; for `CC1CN(c2ccc(C(F)(F)F)cc2-c2cnc(N3CCC(O)CC3)nc2)CCN1C(=O)Cn1ccc2ccncc21` (centres unmarked) [1-(4-{2-[2-(4-hydroxypiperidin-1-yl)pyrimidin-5-yl]-4-(trifluoromethyl)phenyl}-2-methylpiperazin-1-yl)-2-(1H-pyrrolo[2,3-c]pyridin-1-yl)ethanone], 7 nM. For the molecule `CC1CN(c2ccccc2-c2cnc(S(C)(=O)=O)nc2)CCN1C(=O)Cn1c(=O)[nH]c2ccccc21` (centres unmarked) [1-[2-(2-methyl-4-{2-[2-(methylsulfonyl)pyrimidin-5-yl]phenyl}piperazin-1-yl)-2-oxoethyl]-1,3-dihydro-2H-benzimidazol-2-one], the IC50 was determined as 63 nM.

`O=C(Cn1ccc2cccnc21)N1CCN(c2ccccc2-c2cnc(N3CCOCC3)nc2)CC1` [1-{4-[2-(2-Morpholin-4-yl-pyrimidin-5-yl)-phenyl]-piperazin-1-yl}-2-pyrrolo[2,3-b]pyridin-1-yl-ethanone]: the IC50 was 6 nM. In the case of `CC1CN(c2ccc(C(F)(F)F)cc2-c2cnc(N3CCC(S(C)(=O)=O)CC3)nc2)CCN1C(=O)Cn1ccc2ccncc21` (centres unmarked) [1-{2-methyl-4-[2-{2-[4-(methylsulfonyl)piperidin-1-yl]pyrimidin-5-yl}-4-(trifluoromethyl)phenyl]piperazin-1-yl}-2-(1H-pyrrolo[2,3-c]pyridin-1-yl)ethanone] it was 7 nM; in that of `CC1CN(c2ccc(C(F)(F)F)cc2-c2cnc(N3CCC(O)CC3)nc2)CCN1C(=O)Cn1cnc2cccnc21` (centres unmarked) [1-(4-{2-[2-(4-hydroxypiperidin-1-yl)pyrimidin-5-yl]-4-(trifluoromethyl)phenyl}-2-methylpiperazin-1-yl)-2-(3H-imidazo[4,5-b]pyridin-3-yl)ethanone], 11 nM; in that of `O=C(Cn1ccc2cccnc21)N1CCN(c2ccccc2-c2cnc(N3CCCOCC3)nc2)CC1` [1-{4-[2-(2-[1,4]Oxazepan-4-yl-pyrimidin-5-yl)-phenyl]-piperazin-1-yl}-2-pyrrolo[2,3-b]pyridin-1-yl-ethanone], 9 nM. For `CC1CN(c2ccc(C(F)(F)F)cc2-c2cnc(S(C)(=O)=O)nc2)CCN1C(=O)Cn1cnc2cccnc21` (centres unmarked) [2-(3H-imidazo[4,5-b]pyridin-3-yl)-1-(2-methyl-4-{2-[2-(methylsulfonyl)pyrimidin-5-yl]-4-(trifluoromethyl)phenyl}piperazin-1-yl)ethanone] the value was 189 nM; for `CC1CN(c2ccccc2-c2cnc(N3CCC(O)CC3)nc2)CCN1C(=O)Cn1c(=O)[nH]c2ccccc21` (centres unmarked) [1-[2-(4-{2-[2-(4-hydroxypiperidin-1-yl)pyrimidin-5-yl]phenyl}-2-methylpiperazin-1-yl)-2-oxoethyl]-1,3-dihydro-2H-benzimidazol-2-one], 8 nM. For `O=C(Cn1c(=O)[nH]c2ccccc21)N1CCN(c2ccccc2-c2cnc(N3CCOCC3)nc2)CC1` [1-(2-{4-[2-(2-Morpholin-4-yl-pyrimidin-5-yl)-phenyl]-piperazin-1-yl}-2-oxo-ethyl)-1,3-dihydro-benzoimidazol-2-one] the value was 10 nM; for `CC1CN(c2ccccc2-c2cnc(N3CCC(S(C)(=O)=O)CC3)nc2)CCN1C(=O)Cn1cnc2cccnc21` (centres unmarked) [2-(3H-imidazo[4,5-b]pyridin-3-yl)-1-[2-methyl-4-(2-{2-[4-(methylsulfonyl)piperidin-1-yl]pyrimidin-5-yl}phenyl)piperazin-1-yl]ethanone], 14 nM. Consider `O=C(CNc1ccncc1)N1CCN(c2ccccc2-c2cnc(N3CCOCC3)nc2)CC1` [1-{4-[2-(2-Morpholin-4-yl-pyrimidin-5-yl)-phenyl]-piperazin-1-yl}-2-(pyridin-4-ylamino)-ethanone], for which the IC50 came out at 27 nM. As to `COc1ncc(-c2cc(F)ccc2N2CCN(C(=O)Cn3ccc4ccncc43)CC2)cn1` [1-{4-[4-fluoro-2-(2-methoxypyrimidin-5-yl)phenyl]piperazin-1-yl}-2-(1H-pyrrolo[2,3-c]pyridin-1-yl)ethanone], the IC50 turned out to be 13 nM.

As to `CS(=O)(=O)c1ncc(-c2cc(Cl)ccc2N2CCN(C(=O)Cn3ccc4cccnc43)CC2)cn1` [1-{4-[4-Chloro-2-(2-methanesulfonyl-pyrimidin-5-yl)-phenyl]-piperazin-1-yl}-2-pyrrolo[2,3-b]pyridin-1-yl-ethanone], the half-maximal inhibitory concentration (IC50) turned out to be 24 nM. In the case of `CSc1ncc(-c2cc(Cl)ccc2N2CCN(C(=O)Cn3nc(C)cc3C)CC2)cn1` [1-{4-[4-Chloro-2-(2-methylsulfanyl-pyrimidin-5-yl)-phenyl]-piperazin-1-yl}-2-(3,5-dimethyl-pyrazol-1-yl)-ethanone] it was 7 nM. For `COc1cc(NC(=O)c2cc(F)ccc2N2CCN(C(=O)Cn3cnc4cccnc43)[C@H](C)C2)ccn1` [5-fluoro-2-[(3R)-4-(3H-imidazo[4,5-b]pyridin-3-ylacetyl)-3-methylpiperazin-1-yl]-N-(2-methoxypyridin-4-yl)benzamide] the value was 7 nM. Regarding `O=C(Cn1ccc2cccnc21)N1CCN(c2ccc(C(F)(F)F)cc2-c2cnc(N3CCOCC3)nc2)CC1` [1-{4-[2-(2-Morpholin-4-yl-pyrimidin-5-yl)-4-trifluoromethyl-phenyl]-piperazin-1-yl}-2-pyrrolo[2,3-b]pyridin-1-yl-ethanone], the IC50 was found to be 15 nM.

The values are drawn from US8450317B2, “CXCR3 receptor antagonists” (Boehringer Ingelheim International GmbH, priority 2009, dated 2013).
